Where two headings read alike, the source gives them in different places.
What was measured:
[1] = tested on: HT29 cells; assay: CyQuant cell proliferation activity test; assay type: cell-based; details: HT29 at 2000 cells per well, 3 days, 0.2% DMSO, XLFIT
Experimental: Materials and Cells: HT29 cells were purchased from Nanjing Cobioer Biosciences Co., Ltd.; RPMI-1640 medium, fetal bovine serum, Trypsin-EDTA (0.25%), 96-well plates, and CyQuant reagents were purchased from ThermoFisher (USA); DMSO was purchased from SIGMA (USA).
Cell Culture: HT29 cells were cultured with RPMI-1640 containing 10% fetal bovine serum under the condition of 37°C and 5% CO2. Only cells in the logarithmic growth phase could be used for the test.
Cell Proliferation Activity Test: CyQuant reagent was used to detect the proliferation inhibitory activity of compounds on HT29 cells. The cell density was adjusted, and 100 µL per well was inoculated into a 96-well plate (HT29 at 2000 cells per well), then incubated overnight at 37°C and 5% CO2. Add compounds of various target concentrations (initial concentration of 3000 nM, 3-fold dilution, 9 concentration gradients), and make the DMSO content 0.2%. The cell plate was incubated at 37°C in 5% CO2 for 3 days. CyQuant reagent was added and incubated for 1 h. The plates were read by Envision, and IC50 was calculated using XLFIT.

[2] = biological target: T1, Human KIF18A (amino acid sequence 1-417) (Homo sapiens, UniProt Q8NI77); assay: Enzymatic activity test (ADP-Glo, microtubule-stimulated ATPase); assay type: biochemical; details: 60 µg/mL microtubules, 25 µM ATP, 2.5 nM KIF18A protein, 120 min at ambient temperature, chemiluminescence; read-out: KIF18A IC50
T1 construct: purchased Viva Biotech (Shanghai) Ltd
T1 sequence (Q8NI77 1-417): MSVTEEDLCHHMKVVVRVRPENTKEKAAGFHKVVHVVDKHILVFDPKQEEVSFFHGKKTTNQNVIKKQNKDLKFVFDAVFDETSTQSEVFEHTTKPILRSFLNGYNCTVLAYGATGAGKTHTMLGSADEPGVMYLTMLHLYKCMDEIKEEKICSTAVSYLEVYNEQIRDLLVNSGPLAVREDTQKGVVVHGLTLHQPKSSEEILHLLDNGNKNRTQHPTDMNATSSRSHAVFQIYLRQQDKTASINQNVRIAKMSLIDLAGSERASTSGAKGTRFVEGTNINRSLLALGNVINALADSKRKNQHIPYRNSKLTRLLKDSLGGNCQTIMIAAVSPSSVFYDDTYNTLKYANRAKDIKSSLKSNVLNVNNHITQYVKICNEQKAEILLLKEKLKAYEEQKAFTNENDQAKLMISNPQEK
Experimental: Materials: Human KIF18A (amino acid sequence 1-417) was purchased from Viva Biotech (Shanghai) Ltd.; the ADP-Glo™ protein kinase kit was acquired from Promega, USA; tubulin was sourced from Cytoskeleton, USA; and the 384-well assay plate and Envision multifunctional microplate reader were obtained from PerkinElmer, USA.
Enzymatic Activity Test: The compound powder was dissolved in DMSO to prepare a stock solution of 10 mM. Then gradient dilution was performed for the compounds in the microplate to achieve a final concentration of 0-10 µM. Then, 2.5 µL each of tubulin, compound, ATP, and KIF18A protein were added to the microplate in sequence for reaction at ambient temperature for 120 min. The final concentrations in the enzyme reaction were 60 µg/mL for microtubules, 25 µM for ATP, and 2.5 nM for KIF18A protein. After the enzyme reaction, 10 µL of ADP-GLO reaction reagent was added to each well and incubated at room temperature for 30 min. After that, 20 µL of detection reagent was added to each well and incubated at room temperature for 30 min in the dark. Finally, chemiluminescence detection was performed using the PerkinElmer Envision.

[3] = tested on: OVCAR3 cells; assay: Cell proliferation activity test (CyQUANT Direct); assay type: cell-based; details: 3 days, 0.2% DMSO, CyQUANT fluorescence
Experimental: Materials and Cells: OVCAR3 cells were purchased from Nanjing Cobioer Biosciences Co., Ltd. RPMI-1640 medium, fetal bovine serum, and the CyQUANT Direct Cell Proliferation Assay kit were purchased from Thermo Fisher Scientific, USA; 96-well cell culture plates were sourced from Corning, USA.
Cell Culture: OVCAR3 cells were cultured with RPMI-1640 medium containing 10% fetal bovine serum and incubated in a 5% CO2 incubator at 37°C. Only cells in the logarithmic growth phase could be used for the test.
OVCAR3 cells were inoculated into a 96-well cell culture plate at 90 µL per well and incubated overnight in a 5% CO2 incubator at 37°C. The compound powder was dissolved in DMSO to prepare a stock solution of 10 mM. Then gradient dilution was performed for the compounds in the microplate to achieve a final concentration of 0-10 µM. 10 µL of cell culture medium containing compounds was added to each well to make the final DMSO content 0.2%. The cell plates were incubated in a 5% CO2 incubator at 37°C for 3 days. 100 µL of CyQUANT detection reagent was added to each well, reacted at 37°C for 60 min, and fluorescence detection was performed using the PerkinElmer Envision.

SMILES: Cc1cc2nc(n1)N1CCC(F)(F)C(/C=C/CC3CCN(CC3)c3cc(NS(=O)(=O)CCO)c4ccccc4c3C(=O)N2)C1 (single isomer, unassigned) [Example 1D, (trans)-N-(1^4,1^4-difluoro-2^6-methyl-4-oxo-3-aza-2(2,4)-pyrimidin-1(1,3),6(1,4)-dipiperidin-5(1,2)-naphthacyclonon-8-en-5 ^4-yl)-2-hydroxyethane-1-sulfonamide]
- IC50 ([1]; read-out: HT-29 IC50): 137 nM
- IC50 [2]: 211 nM
- IC50 [3]: 137 nM

SMILES: Cc1cc2nc(n1)N1CCC(F)(F)C(C=CCC3CCN(CC3)c3cc(NS(=O)(=O)CCO)c4c(c3C(=O)N2)CCC4=O)C1 (single isomer, unassigned) [Example 2A, N-(1^4,1^4-difluoro-2^6-methyl-5^1,4-dioxo-5^2,5^3-dihydro-5^1H-3-aza-2(2,4)-pyrimidin-1(1,3),6(1,4)-dipiperidin-5(4,5)-indenoheterocyclonon-8-en-5^7-yl)-2-hydroxyethane-1-sulfonamide]
- IC50 ([1]; read-out: HT-29 IC50): 9 nM
- IC50 [2]: 35 nM
- IC50 [3]: 8 nM

SMILES: Cc1cc2nc(n1)N1CCC(F)(F)C(C=CCC3CCN(CC3)c3cc(NS(=O)(=O)CCO)c4c(c3C(=O)N2)CCC4=O)C1 (single isomer, unassigned) [Example 2B, N-(1^4,1^4-difluoro-2^6-methyl-5^1,4-dioxo-5^2,5^3-dihydro-5^1H-3-aza-2(2,4)-pyrimidin-1(1,3),6(1,4)-dipiperidin-5(4,5)-indenoheterocyclonon-8-en-5^7-yl)-2-hydroxyethane-1-sulfonamide]
- IC50 ([1]; read-out: HT-29 IC50): 639 nM
- IC50 [2]: 3550 nM
- IC50 [3]: 639 nM

SMILES: Cc1cc2nc(n1)N1CCC(F)(F)C(C=CCC3CCN(CC3)c3cc(NS(=O)(=O)CCO)c4c(c3C(=O)N2)CCC4=O)C1 (single isomer, unassigned) [Example 2C, N-(1^4,1^4-difluoro-2^6-methyl-5^1,4-dioxo-5^2,5^3-dihydro-5^1H-3-aza-2(2,4)-pyrimidin-1(1,3),6(1,4)-dipiperidin-5(4,5)-indenoheterocyclonon-8-en-5^7-yl)-2-hydroxyethane-1-sulfonamide]
- IC50 ([1]; read-out: HT-29 IC50): 25 nM
- IC50 [2]: 43 nM
- IC50 [3]: 25 nM

SMILES: Cc1cc2nc(n1)N1CCC(F)(F)C(C=CCC3CCN(CC3)c3cc(NS(=O)(=O)CCO)c4c(c3C(=O)N2)CCC4=O)C1 (single isomer, unassigned) [Example 2D, N-(1^4,1^4-difluoro-2^6-methyl-5^1,4-dioxo-5^2,5^3-dihydro-5^1H-3-aza-2(2,4)-pyrimidin-1(1,3),6(1,4)-dipiperidin-5(4,5)-indenoheterocyclonon-8-en-5^7-yl)-2-hydroxyethane-1-sulfonamide]
- IC50 ([1]; read-out: HT-29 IC50): 679 nM
- IC50 [2]: 546 nM
- IC50 [3]: 679 nM

SMILES: Cc1cc2nc(n1)N1CCC(F)(F)C(CCCc3ccc(cc3)-c3cc(NS(=O)(=O)CCO)ccc3C(=O)N2)C1 (single isomer, unassigned) [Example 46A, N-(1^4,1^4-difluoro-2^6-methyl-4-oxo-3-aza-2(2,4)-pyrimidin-1(1,3)-piperidin-5(1,2),6(1,4)-diphenylheterocyclononane-5^4-yl)-2-hydroxyethane-1-sulfonamide]
- IC50 ([1]; Homo sapiens, HT-29, 72 h): 58 nM
- IC50 [2]: 117 nM
- IC50 ([3]; Homo sapiens, OVCAR-3, 72 h): 36 nM

SMILES: COc1cc2nc(n1)N1CCC(F)(F)C(CCCc3ccc(cc3)-c3cc(NS(=O)(=O)CCO)ccc3C(=O)N2)C1 (single isomer, unassigned) [Example 51A, N-(1^4,1^4-difluoro-2^6-methoxy-4-oxo-3-aza-2(2,4)-pyrimidin-1(1,3)-piperidin-5(1,2),6(1,4)-dibenzylcyclononane-5^4-yl)-2-hydroxyethane-1-sulfonamide]
- IC50 ([1]; Homo sapiens, HT-29, 72 h): 39 nM
- IC50 [2]: 107 nM
- IC50 ([3]; Homo sapiens, OVCAR-3, 72 h): 45 nM

SMILES: COc1cc2nc(n1)N1CCC(F)(F)C(CCCc3ccc(cc3)-c3cc(NS(=O)(=O)CCO)ccc3C(=O)N2)C1 (single isomer, unassigned) [Example 51B, N-(1^4,1^4-difluoro-2^6-methoxy-4-oxo-3-aza-2(2,4)-pyrimidin-1(1,3)-piperidin-5(1,2),6(1,4)-dibenzylcyclononane-5^4-yl)-2-hydroxyethane-1-sulfonamide]
- IC50 ([1]; read-out: HT-29 IC50): 74 nM
- IC50 [2]: 144 nM
- IC50 [3]: 72 nM

SMILES: COc1cc2nc(n1)N1CCC(F)(F)C(CCCc3ccc(cc3)-c3cc(NS(=O)(=O)CCO)ncc3C(=O)N2)C1 (single isomer, unassigned) [Example 56A, N-(1^4,1^4-difluoro-2^6-methoxy-4-oxo-3-aza-2(2,4)-pyrimidin-5(3,4)-pyridin-1(1,3)-piperidin-6(1,4)-benzoazacyclononane-5^6-yl)-2-hydroxyethane-1-sulfonamide]
- IC50 ([1]; Homo sapiens, HT-29, 72 h): 378 nM
- IC50 [2]: 41 nM
- IC50 ([3]; Homo sapiens, OVCAR-3, 72 h): 188 nM

SMILES: COc1cc2nc(n1)N1CCC(F)(F)C(CCCc3ccc(cc3)-c3cc(NS(=O)(=O)CCO)ncc3C(=O)N2)C1 (single isomer, unassigned) [Example 56B, N-(1^4,1^4-difluoro-2^6-methoxy-4-oxo-3-aza-2(2,4)-pyrimidin-5(3,4)-pyridin-1(1,3)-piperidin-6(1,4)-benzoazacyclononane-5^6-yl)-2-hydroxyethane-1-sulfonamide]
- IC50 ([1]; read-out: HT-29 IC50): 192 nM
- IC50 [2]: 9 nM
- IC50 [3]: 112 nM

SMILES: Cc1cc2nc(n1)N1CCC(F)(F)C(C=CCC3=CC=C(S3)c3cc(NS(=O)(=O)CCO)ccc3C(=O)N2)C1 (single isomer, unassigned) [Example 57A, N-(1^4,1^4-difluoro-2^6-methyl-4-oxo-3-aza-2(2,4)-pyrimidin-1(1,3)-piperidin-6(2,5)-thiophene-5(1,2)-benzoazacyclon-8-en-5^4-yl)-2-hydroxyethane-1-sulfonamide]
- IC50 ([1]; Homo sapiens, HT-29, 72 h): 39 nM
- IC50 [2]: 60 nM
- IC50 ([3]; Homo sapiens, OVCAR-3, 72 h): 114 nM

SMILES: Cc1cc2nc(n1)N1CCC(F)(F)C(/C=C\CC3CCN(CC3)c3cc(NS(=O)(=O)CCO)c4c(c3C(=O)N2)CCC4)C1 (stereo not drawn) [Example 4, N-(1^4,1^4-difluoro-2^6-methyl-4-oxo-5^2,5^3-dihydro-5^1H-3-aza-2(2,4)-pyrimidin-1(1,3),6(1,4)-dipiperidin-5(4,5)-indenoheterocyclonon-8-en-5^7-yl)-2-hydroxyethane-1-sulfonamide]
- IC50 ([1]; Homo sapiens, HT-29, 72 h): 55 nM
- IC50 [2]: 404 nM
- IC50 ([3]; Homo sapiens, OVCAR-3, 72 h): 49 nM

SMILES: COc1cc2nc(n1)N1CCC(F)(F)C(/C=C\CC3CCN(CC3)c3cc(NS(=O)(=O)CCO)c4c(c3C(=O)N2)CCC4=O)C1 (stereo not drawn) [Example 5, N-(1^4,1^4-difluoro-2^6-methoxy-5^1,4-dioxo-5^2,5^3-dihydro-5^1H-3-aza-2(2,4)-pyrimidin-1(1,3),6(1,4)-dipiperidin-5(4,5)-indenoheterocyclononane-8-en-5^7-yl)-2-hydroxyethane-1-sulfonamide]
- IC50 ([1]; Homo sapiens, HT-29, 72 h): 42 nM
- IC50 [2]: 162 nM
- IC50 ([3]; Homo sapiens, OVCAR-3, 72 h): 42 nM

— EP4772509A1, “KINESIN KIF18A INHIBITOR, AND APPLICATION THEREOF” (Shanghai Apeiron Therapeutics Company Limited, priority 2023, dated 2025)
